The text below walks through data of patent US8071581B2, “Triazolopyridazine protein kinase modulators” (SGX Pharmaceuticals, Inc., priority 2006, dated 2011).

The test system of one assay is GTL16. Nature of the assay: GTL16 cell assay (EC50). Particulars: Homo sapiens, GTL 16; Table 1. It counts as cell-based. How it is done: Compounds were tested in the following assays in duplicate. 96-well XTT assay: Cells were grown in growth media containing various concentrations of compounds (duplicates) on a 96-well flat bottom plate for 72 hours at 37° C. in 5% CO2. The starting cell number was 5000 cells per well and volume was 120 μl. At the end of the 72-hour incubation, 40 μl of XTT labeling mixture (50:1 solution of sodium 3′-[1-(phenylaminocarbonyl)-3,4-tetrazolium]-bis(4-methoxy-6-nitro) benzene sulfonic acid hydrate and Electron-coupling reagent: PMS (N-methyl dibenzopyrazine methyl sulfate) were added to each well of the plate. After an additional 2-6 hours […] with a spectrophotometer.

Assay [1] addresses MET kinase (c-MET), kinase domain of human Met (Homo sapiens, UniProt P08581). Nature of the assay: MET luminescence-based enzyme assay (Kinase-Glo). Background: Kinase-Glo measures the ATP left after a reaction by luminescence.

Chain of MET kinase (c-MET), kinase domain of human Met (P08581 1078-1345 limits assumed): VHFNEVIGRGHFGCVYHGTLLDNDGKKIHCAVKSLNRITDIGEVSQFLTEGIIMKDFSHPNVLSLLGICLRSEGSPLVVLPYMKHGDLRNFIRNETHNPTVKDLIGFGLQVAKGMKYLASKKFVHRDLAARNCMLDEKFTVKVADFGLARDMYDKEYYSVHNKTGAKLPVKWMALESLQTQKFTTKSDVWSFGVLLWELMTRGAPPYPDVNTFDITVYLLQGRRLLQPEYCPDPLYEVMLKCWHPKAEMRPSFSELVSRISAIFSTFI

As a reminder, the EC50 is the concentration giving half of the maximal effect. Read a high EC50 as lower potency in that assay. As usually defined, the IC50 is the point on the concentration scale where inhibition reaches its midpoint. Read a high IC50 as weaker potency in that assay. `Cc1cccc(-c2ccc3nnc(Cc4ccc5ncccc5c4)n3n2)c1` [compound 35] showed an EC50 in the assay on GTL16 of 100 to 1000 nM. The IC50 in assay [1] is less than 100 nM.
In the case of `Cc1ccc(-c2ccc3nnc(Cc4ccc5ncccc5c4)n3n2)cc1` [compound 36], the EC50 with GTL16 was less than 100 nM. In assay [1], the IC50 was less than 100 nM.
As to `CNS(=O)(=O)c1ccc(-c2ccc3nnc(Cc4ccc5ncccc5c4)n3n2)cc1` [compound 37], the EC50 in the assay on GTL16 was less than 100 nM. The half-maximal inhibitory concentration (IC50) in assay [1] was in the range of 100 to 1000 nM.
The like results for `Nc1nc2ccc(Cc3nnc4ccc(-c5ccccc5)nn34)cc2s1` [compound 42] were, in that order, 1000 to 10000 nM and 100 to 1000 nM.
In turn, `c1ccc(-c2ccc3nnc(Cc4ccc5ncsc5c4)n3n2)cc1` [compound 43] gave a concentration giving a half-maximal response (EC50) with GTL16 of 100 to 1000 nM. For the same molecule, in assay [1], the IC50 was in the range of 100 to 1000 nM.
In the assay with GTL16, `c1ccc(-c2ccc3nnc(Cc4ccc5nc[nH]c5c4)n3n2)cc1` [compound 45, 3-(3H-Benzoimidazol-5-ylmethyl)-6-phenyl-[1,2,4]triazolo[4,3-b]pyridazine] displayed a half-maximal effective concentration (EC50) of 100 to 1000 nM. Moreover, the IC50 in assay [1] was in the range of 100 to 1000 nM.
As for `C/C=C/c1ccc2nnc(Cc3ccc4ncccc4c3)n2n1` [compound 46], the EC50 in the assay with GTL16 lay in the range of 100 to 1000 nM. The molecule further displayed an IC50 in assay [1] of 100 to 1000 nM.
For the molecule `CCNC(=O)c1cccc(-c2ccc3nnc(Cc4ccc5ncccc5c4)n3n2)c1` [compound 47], in the assay on GTL16, the EC50 was in the range of 100 to 1000 nM. In addition, in assay [1], the half-inhibitory concentration (IC50) is less than 100 nM.
Taken in the same sequence, the figures for `CNS(=O)(=O)c1cccc(-c2ccc3nnc(Cc4ccc5ncccc5c4)n3n2)c1` [compound 48] were less than 100 nM and less than 100 nM.
The like results for `CS(=O)(=O)c1cccc(-c2ccc3nnc(Cc4ccc5ncccc5c4)n3n2)c1` [compound 49] were, in that order, less than 100 nM and less than 100 nM.
Turning to `CS(=O)(=O)Nc1cccc(-c2ccc3nnc(Cc4ccc5ncccc5c4)n3n2)c1` [compound 51], the EC50 in the assay with GTL16 lay in the range of 100 to 1000 nM. Moreover, the IC50 in assay [1] is less than 100 nM.
As for `CC(=O)Nc1ccc(-c2ccc3nnc(Cc4ccc5ncccc5c4)n3n2)cc1` [compound 52], the EC50 in the assay with GTL16 lay within 100 to 1000 nM. The IC50 in assay [1] was less than 100 nM.
The like results for `Fc1ccccc1-c1ccc2nnc(Cc3ccc4ncccc4c3)n2n1` [compound 53] were, in that order, 100 to 1000 nM and 100 to 1000 nM.
The like results for `OCc1ccc(-c2ccc3nnc(Cc4ccc5ncccc5c4)n3n2)cc1` [compound 54] were, in that order, 100 to 1000 nM and less than 100 nM.
In turn, `NCc1cccc(-c2ccc3nnc(Cc4ccc5ncccc5c4)n3n2)c1` [compound 55] came in with an EC50 in the assay on GTL16 of 100 to 1000 nM. In addition, the IC50 in assay [1] is less than 100 nM.
In the case of `CNC(=O)c1cc(F)cc(-c2ccc3nnc(Cc4ccc5ncccc5c4)n3n2)c1` [compound 56], in the assay on GTL16, the EC50 is 100 to 1000 nM. The molecule also displayed an IC50 in assay [1] of 100 to 1000 nM.
For the molecule `CC(=O)Nc1cccc(-c2ccc3nnc(Cc4ccc5ncccc5c4)n3n2)c1` [compound 57], the EC50 in the assay with GTL16 fell in the range of 1000 to 10000 nM. This molecule displayed an IC50 in assay [1] of 100 to 1000 nM.
As for `CNC(=O)c1cccc(-c2ccc3nnc(Cc4ccc5ncccc5c4)n3n2)c1` [compound 58], the EC50 with GTL16 was 1000 to 10000 nM. In assay [1], this molecule showed an IC50 of 100 to 1000 nM.
The like results for `N#CCc1cccc(-c2ccc3nnc(Cc4ccc5ncccc5c4)n3n2)c1` [compound 61] were, in that order, 100 to 1000 nM and less than 100 nM.
In the assay with GTL16, `O=S(=O)(c1ccc(-c2ccc3nnc(Cc4ccc5ncccc5c4)n3n2)cc1)N1CCOCC1` [compound 62] displayed an EC50 of 100 to 1000 nM. Also, the IC50 in assay [1] was less than 100 nM.
The like results for `Fc1ccc(-c2ccc3nnc(Cc4ccc5ncccc5c4)n3n2)cc1` [compound 63] were, in that order, 100 to 1000 nM and 100 to 1000 nM.
The like results for `CN(C)S(=O)(=O)c1cccc(-c2ccc3nnc(Cc4ccc5ncccc5c4)n3n2)c1` [compound 64] were, in that order, less than 100 nM and less than 100 nM.
Turning to `CNc1ccc(-c2ccc3nnc(Cc4ccc5ncccc5c4)n3n2)cc1` [compound 65], the EC50 with GTL16 is less than 100 nM. Moreover, the IC50 in assay [1] was less than 100 nM.
Molecule `CNC(=O)c1ccc(-c2ccc3nnc(Cc4ccc5ncccc5c4)n3n2)cc1` [compound 66] registered a half-maximal effective concentration (EC50) in the assay with GTL16 of 100 to 1000 nM. In assay [1], this molecule had an IC50 of less than 100 nM.
Taken in the same sequence, the figures for `CN(C)c1cccc(-c2ccc3nnc(Cc4ccc5ncccc5c4)n3n2)c1` [compound 67] were 100 to 1000 nM and 100 to 1000 nM.
Taken in the same sequence, the figures for `Cn1cnc2ccc(Cc3nnc4ccc(-c5ccccc5)nn34)cc21` [compound 68, 3-(3-Methyl-3H-benzoimidazol-5-ylmethyl)-6-phenyl-[1,2,4]triazolo[4,3-b]pyridazine] were 100 to 1000 nM and 100 to 1000 nM.
The like results for `N#Cc1cc(-c2ccc3nnc(Cc4ccc5ncccc5c4)n3n2)ccc1F` [compound 69] were, in that order, 1000 to 10000 nM and 100 to 1000 nM.
`Fc1cc(F)cc(-c2ccc3nnc(Cc4ccc5ncccc5c4)n3n2)c1` [compound 70]: in the assay with GTL16, the EC50 is 100 to 1000 nM. In assay [1], this molecule yielded an IC50 of less than 100 nM.
On to `CN(C)C(=O)c1cc(F)cc(-c2ccc3nnc(Cc4ccc5ncccc5c4)n3n2)c1` [compound 71], for which the EC50 with GTL16 was 100 to 1000 nM. In assay [1], this molecule yielded a concentration for half-maximal inhibition (IC50) of 100 to 1000 nM.
The molecule `O=C(NCC(F)(F)F)c1ccc(-c2ccc3nnc(Cc4ccc5ncccc5c4)n3n2)cc1` [compound 72] registered an EC50 with GTL16 of 100 to 1000 nM. This molecule returned an IC50 in assay [1] of less than 100 nM.
The like results for `O=C(NCCO)c1ccc(-c2ccc3nnc(Cc4ccc5ncccc5c4)n3n2)cc1F` [compound 74] were, in that order, 100 to 1000 nM and less than 100 nM.
For `CCNC(=O)c1ccc(-c2ccc3nnc(Cc4ccc5ncccc5c4)n3n2)cc1F` [compound 75], the EC50 in the assay with GTL16 is less than 100 nM. The molecule further gave an IC50 in assay [1] of less than 100 nM.
`Cc1cc(F)cc(-c2ccc3nnc(Cc4ccc5ncccc5c4)n3n2)c1` [compound 76] yielded an EC50 in the assay on GTL16 of less than 100 nM. In assay [1], the IC50 was less than 100 nM.
On to `Fc1ccc(-c2ccc3nnc(Cc4ccc5ncccc5c4)n3n2)cc1C(F)(F)F` [compound 77], for which the EC50 in the assay with GTL16 is less than 100 nM. Also, the IC50 in assay [1] is 100 to 1000 nM.
The like results for `FC(F)(F)c1cccc(-c2ccc3nnc(Cc4ccc5ncccc5c4)n3n2)c1` [compound 78] were, in that order, less than 100 nM and less than 100 nM.
Taken in the same sequence, the figures for `CC(c1ccc2ncsc2c1)c1nnc2ccc(-c3cnn(C)c3)nn12` (stereo not drawn) [compound 79] were less than 100 nM and less than 100 nM.
For the molecule `CNC(=O)c1ccc(-c2ccc3nnc(C(C)c4ccc5ncccc5c4)n3n2)cc1F` (stereo not drawn) [compound 80], the EC50 in the assay on GTL16 is less than 100 nM. Further, in assay [1], the IC50 is less than 100 nM.
Regarding `CC(c1ccc2ncsc2c1)c1nnc2ccc(-c3cccc(C#N)c3)nn12` (stereo not drawn) [compound 81], in the assay on GTL16, the EC50 is less than 100 nM. Also, in assay [1], the IC50 was less than 100 nM.
`CNC(=O)c1ccc(-c2ccc3nnc(C(C)c4ccc5ncsc5c4)n3n2)cc1F` (stereo not drawn) [compound 82] displayed an EC50 in the assay on GTL16 of less than 100 nM. For the same molecule, the IC50 in assay [1] is less than 100 nM.
In the case of `Cc1cc2ncccc2cc1Cc1nnc2ccc(-c3cnn(C)c3)nn12` [compound 84], the EC50 in the assay with GTL16 is less than 100 nM. In assay [1], the IC50 is less than 100 nM.
For the molecule `Cc1cc2ncccc2cc1Cc1nnc2ccc(-c3cccc(C#N)c3)nn12` [compound 85], in the assay with GTL16, the EC50 is less than 100 nM. The IC50 in assay [1] is less than 100 nM.
As to `Cn1cc(-c2ccc3nnc(Cc4c(F)cc5ncccc5c4F)n3n2)cn1` [compound 87], the EC50 with GTL16 was less than 100 nM. In assay [1], the half-inhibitory concentration (IC50) is less than 100 nM.
`N#Cc1cccc(-c2ccc3nnc(Cc4c(F)cc5ncccc5c4F)n3n2)c1` [compound 88] gave an EC50 in the assay with GTL16 of less than 100 nM. Moreover, the IC50 in assay [1] was less than 100 nM.
The molecule `CNC(=O)c1ccc(-c2ccc3nnc(Cc4c(F)cc5ncccc5c4F)n3n2)cc1F` [compound 89] returned an EC50 in the assay with GTL16 of less than 100 nM. The IC50 in assay [1] was less than 100 nM.
`Cn1cc(-c2ccc3nnc(Cc4cc5cccnc5cc4F)n3n2)cn1` [compound 90]: the EC50 in the assay with GTL16 is less than 100 nM. This molecule came in with an IC50 in assay [1] of less than 100 nM.
In the assay with GTL16, `CCNC(=O)c1ccc(-c2ccc3nnc(Cc4ccc5ncsc5c4)n3n2)cc1F` [compound 94] registered an EC50 of 100 to 1000 nM. The same molecule displayed an IC50 in assay [1] of 100 to 1000 nM.
In the assay on GTL16, `CC(C)NC(=O)c1ccc(-c2ccc3nnc(Cc4ccc5ncsc5c4)n3n2)cc1F` [compound 95] came in with an EC50 of 100 to 1000 nM. This molecule gave an IC50 in assay [1] of less than 100 nM.
The like results for `Cn1cc(-c2ccc3nnc(Cc4ccc5ncsc5c4)n3n2)cn1` [compound 96] were, in that order, less than 100 nM and less than 100 nM.
Taken in the same sequence, the figures for `N#Cc1cccc(-c2ccc3nnc(Cc4ccc5ncsc5c4)n3n2)c1` [compound 98] were 100 to 1000 nM and 100 to 1000 nM.
Taken in the same sequence, the figures for `CNC(=O)c1ccc(-c2ccc3nnc(Cc4ccc5ncsc5c4)n3n2)cc1F` [compound 101] were 100 to 1000 nM and less than 100 nM.
For `CS(=O)(=O)c1cccc(-c2ccc3nnc(Cc4ccc5ncsc5c4)n3n2)c1` [compound 102], in the assay on GTL16, the EC50 was 100 to 1000 nM. In assay [1], the IC50 is less than 100 nM.
Taken in the same sequence, the figures for `C[C@@H](c1ccc2ncsc2c1)c1nnc2ccc(-c3cccc(C#N)c3)nn12` [compound 103, (S)-3-[3-(1-Benzothiazol-6-yl-ethyl)-[1,2,4]triazolo[4,3-b]pyridazin-6-yl]-benzonitrile] were less than 100 nM and less than 100 nM.
The like results for `C=Cc1ccc2nnc(Cc3ccc4ncccc4c3)n2n1` [compound 107] were, in that order, 100 to 1000 nM and 100 to 1000 nM.
Molecule `c1cnc2ccc(Cc3nnc4ccc(C5CC5)nn34)cc2c1` [compound 109, 6-(6-Cyclopropyl-[1,2,4]triazolo[4,3-b]pyridazin-3-ylmethyl)-quinoline] returned an EC50 in the assay on GTL16 of 100 to 1000 nM. The same molecule showed an IC50 in assay [1] of 100 to 1000 nM.
